One compound from ChEMBL document CHEMBL3576804, “Novel Potent Orthosteric Antagonist of ASIC1a Prevents NMDAR-Dependent LTP Induction” (J Med Chem, 2015) can be followed below.

What all share (format): cell-based
Assay [1] deals with T1, Acid-sensing ion channel 1 (Homo sapiens) (UniProt P78348).
T1 sequence (whole entry): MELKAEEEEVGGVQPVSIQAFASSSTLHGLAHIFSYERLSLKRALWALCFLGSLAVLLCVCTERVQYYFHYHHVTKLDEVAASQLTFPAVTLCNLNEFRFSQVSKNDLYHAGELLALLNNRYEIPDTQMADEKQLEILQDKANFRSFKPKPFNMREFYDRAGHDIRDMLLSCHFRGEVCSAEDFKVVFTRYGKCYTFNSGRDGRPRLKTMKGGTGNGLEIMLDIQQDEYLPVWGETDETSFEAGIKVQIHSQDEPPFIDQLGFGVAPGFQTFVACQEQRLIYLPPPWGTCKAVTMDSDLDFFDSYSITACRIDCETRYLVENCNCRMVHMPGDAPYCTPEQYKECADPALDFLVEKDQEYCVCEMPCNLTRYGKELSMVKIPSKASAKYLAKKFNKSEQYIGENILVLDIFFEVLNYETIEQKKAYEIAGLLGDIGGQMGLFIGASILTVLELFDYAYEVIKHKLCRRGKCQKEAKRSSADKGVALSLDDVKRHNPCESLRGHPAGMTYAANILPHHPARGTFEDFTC
The assay can be described thus: Inhibition of human ASIC1a endogenously expressed in HEK293 cells clamped at -100 mV gated ionic current at 100 uM at pH 5.0 by standard whole cell patch clamp assay.

In assay [2] the target is T1, Acid-sensing ion channel 1 (Homo sapiens). The assay can be described thus: Inhibition of human ASIC1a endogenously expressed in HEK293 cells clamped at -100 mV gated ionic current at 10 uM at pH 6.7 by standard whole cell patch clamp assay. A general note: The patch-clamp technique gives a direct electrical read-out from membranes.
Assay [3] has the same target. The assay can be described thus: Inhibition of human ASIC1a endogenously expressed in HEK293 cells clamped at -100 mV gated ionic current at 10 uM at pH 5.0 by standard whole cell patch clamp assay.
Assay [4] shares this target. Nature of the assay: Inhibition of human ASIC1a endogenously expressed in HEK293 cells clamped at -100 mV gated ionic current at 100 uM at pH 6.7 by standard whole cell patch clamp assay.

Structures are written as SMILES.

As a reminder, the inhibition is the relative decrease from the control value, in per cent. In the case of `CCN(CC)CCN(CC)c1ccc2cc(C(=N)N)c(=O)oc2c1`, the inhibition came to 78.7% in assay [1], 77.5% in assay [2], 101% in assay [3] and 53.2% in assay [4].
